Test results from ChEMBL document CHEMBL1201862, “PubChem BioAssay data set” (2004).
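Where inhibition never reached the appropriate level, the endpoint shown equals the highest concentration tested. Otherwise, values were interpolated linearly from a five-concentration, 48-hour dose response in 96-well plates. GI50 = concentration required for 50% inhibition of growth.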 Active and inactive are the calls of the source. Rule as the data show it: active = GI50 up to about 1.1 µM and inactive = higher.

Assays:
Test in all cases: inhibition of tumour cell growth, NCI panel, 48 h
MDA-N = system: MDA-N
UACC-257 = system: UACC-257
786-0 = system: 786-0
IGROV-1 = system: IGROV-1
HOP-92 = system: HOP-92
TK-10 = system: TK-10
SF-295 = system: SF-295
HCC 2998 = system: HCC 2998
M14 = system: M14
UACC-62 = system: UACC-62
PC-3 = system: PC-3
NCI-H460 = system: NCI-H460
RXF 393 = system: RXF 393
SK-MEL-2 = system: SK-MEL-2
SK-MEL-5 = system: SK-MEL-5
HT-29 = system: HT-29
SNB-19 = system: SNB-19
KM12 = system: KM12
HL-60 = system: HL-60
SR = system: SR

Row | Compound | GI50 (MDA-N) | GI50 (UACC-257) | GI50 (786-0) | GI50 (IGROV-1) | GI50 (HOP-92) | GI50 (TK-10) | GI50 (SF-295) | GI50 (HCC 2998) | GI50 (M14) | GI50 (UACC-62) | GI50 (PC-3) | GI50 (NCI-H460) | GI50 (RXF 393) | GI50 (SK-MEL-2) | GI50 (SK-MEL-5) | GI50 (HT-29) | GI50 (SNB-19) | GI50 (KM12) | GI50 (HL-60) | GI50 (SR)
1 | C/C(=C\c1ccccn1)c1ccccn1 | > 100 µM (inactive) | > 100 µM (inactive) | > 100 µM (inactive) | > 100 µM (inactive) | > 100 µM (inactive) | > 100 µM (inactive) | > 100 µM (inactive) | > 100 µM (inactive) | > 100 µM (inactive) | > 100 µM (inactive) | > 100 µM (inactive) | > 100 µM (inactive) | > 100 µM (inactive) | > 100 µM (inactive) | > 100 µM (inactive) | > 100 µM (inactive) | > 100 µM (inactive) | > 100 µM (inactive) | – | –
2 | CCOc1cc2c(c(OCC)c1O)CC[C@@H]1[C@@H]2CC[C@]2(C)[C@@H](O)CC[C@@H]12 | 0.234 µM (active) | – | 2.45 µM (inactive) | 6.76 µM (inactive) | 18.7 µM (inactive) | 25.3 µM (inactive) | 0.693 µM (active) | – | 3.05 µM (inactive) | 0.482 µM (active) | – | – | 2.21 µM (inactive) | 14 µM (inactive) | 1.21 µM (inactive) | 8.38 µM (inactive) | 1.25 µM (inactive) | 6.03 µM (inactive) | 0.297 µM (active) | 0.331 µM (active)
3 | Cc1cc(SCC(=O)c2ccccc2)nc2ccccc12 | – | > 100 µM (inactive) | > 100 µM (inactive) | > 100 µM (inactive) | > 100 µM (inactive) | > 100 µM (inactive) | > 100 µM (inactive) | – | 92.3 µM (inactive) | > 100 µM (inactive) | > 100 µM (inactive) | > 100 µM (inactive) | > 100 µM (inactive) | > 100 µM (inactive) | > 100 µM (inactive) | 40.1 µM (inactive) | > 100 µM (inactive) | > 100 µM (inactive) | > 100 µM (inactive) | > 100 µM (inactive)
4 | Cc1ccc(/C=N/Nc2ncccn2)s1 | > 100 µM (inactive) | > 100 µM (inactive) | > 100 µM (inactive) | > 100 µM (inactive) | > 100 µM (inactive) | > 100 µM (inactive) | > 100 µM (inactive) | > 100 µM (inactive) | > 100 µM (inactive) | > 100 µM (inactive) | > 100 µM (inactive) | – | > 100 µM (inactive) | > 100 µM (inactive) | > 100 µM (inactive) | > 100 µM (inactive) | > 100 µM (inactive) | > 100 µM (inactive) | – | –
5 | FC1=C2C3CCC(C3)C2C1(F)F (centres undefined) | > 100 µM (inactive) | > 100 µM (inactive) | > 100 µM (inactive) | > 100 µM (inactive) | – | > 100 µM (inactive) | > 100 µM (inactive) | > 100 µM (inactive) | > 100 µM (inactive) | > 100 µM (inactive) | > 100 µM (inactive) | > 100 µM (inactive) | > 100 µM (inactive) | > 100 µM (inactive) | > 100 µM (inactive) | > 100 µM (inactive) | > 100 µM (inactive) | > 100 µM (inactive) | 81.7 µM (inactive) | –
6 | CN1c2ccccc2S(=O)(=O)n2c(COc3ccccc3)nnc21 | > 100 µM (inactive) | > 100 µM (inactive) | 64.6 µM (inactive) | > 100 µM (inactive) | 56.5 µM (inactive) | > 100 µM (inactive) | 45.7 µM (inactive) | > 100 µM (inactive) | > 100 µM (inactive) | > 100 µM (inactive) | > 100 µM (inactive) | > 100 µM (inactive) | > 100 µM (inactive) | > 100 µM (inactive) | > 100 µM (inactive) | > 100 µM (inactive) | > 100 µM (inactive) | > 100 µM (inactive) | 62.5 µM (inactive) | –
7 | CCCCc1ccc(Nc2nc3ncnc-3c[nH]2)cc1 | 32.8 µM (inactive) | 21.2 µM (inactive) | 25.6 µM (inactive) | 17.3 µM (inactive) | 21.8 µM (inactive) | 17 µM (inactive) | 18.2 µM (inactive) | 16.8 µM (inactive) | 18.6 µM (inactive) | 21 µM (inactive) | – | – | 18.5 µM (inactive) | 20.2 µM (inactive) | 16.6 µM (inactive) | 21 µM (inactive) | 18.2 µM (inactive) | 19.4 µM (inactive) | 38.5 µM (inactive) | > 10 µM (inactive)
8 | O=c1/c(=C/c2ccc(-c3ccc(Cl)cc3Cl)o2)sc2n1[C@@H](c1ccc3c(c1)OCO3)C=C(c1cc(F)c(Cl)cc1Cl)N=2 | 37.8 µM (inactive) | 22.6 µM (inactive) | 42.9 µM (inactive) | 34.3 µM (inactive) | 31.1 µM (inactive) | 7.78 µM (inactive) | 40.7 µM (inactive) | – | 28 µM (inactive) | 16 µM (inactive) | 69 µM (inactive) | 37 µM (inactive) | 39.4 µM (inactive) | 26 µM (inactive) | 28.5 µM (inactive) | 25.6 µM (inactive) | 28.8 µM (inactive) | 57.5 µM (inactive) | 27.2 µM (inactive) | –
9 | COc1ccc(N2C(=O)CC(=O)N(C(=O)COc3ccc(OCC(=O)N4C(=O)CC(=O)N(c5ccc(OC)cc5)C4=S)cc3)C2=S)cc1 | 37.8 µM (inactive) | 43.9 µM (inactive) | 36.5 µM (inactive) | 47.9 µM (inactive) | 40.9 µM (inactive) | 44.3 µM (inactive) | 36.8 µM (inactive) | 32.3 µM (inactive) | 54.5 µM (inactive) | 29.2 µM (inactive) | 41 µM (inactive) | 25.7 µM (inactive) | 23.7 µM (inactive) | 23.9 µM (inactive) | 36.8 µM (inactive) | 47.8 µM (inactive) | 40.3 µM (inactive) | 15.6 µM (inactive) | – | –
10 | CC1=CC(C)(C)NN1C1=NS(=O)(=O)c2ccccc2N1C | > 100 µM (inactive) | > 100 µM (inactive) | > 100 µM (inactive) | > 100 µM (inactive) | > 100 µM (inactive) | > 100 µM (inactive) | > 100 µM (inactive) | > 100 µM (inactive) | > 100 µM (inactive) | > 100 µM (inactive) | > 100 µM (inactive) | > 100 µM (inactive) | > 100 µM (inactive) | > 100 µM (inactive) | > 100 µM (inactive) | > 100 µM (inactive) | > 100 µM (inactive) | > 100 µM (inactive) | > 100 µM (inactive) | –
11 | O=C(Nc1cc(Cl)c(Cl)cc1Cl)C(=O)C1C(=O)NC(=S)NC1=O | – | > 100 µM (inactive) | > 100 µM (inactive) | > 100 µM (inactive) | > 100 µM (inactive) | > 100 µM (inactive) | > 100 µM (inactive) | > 100 µM (inactive) | > 100 µM (inactive) | > 100 µM (inactive) | – | > 100 µM (inactive) | > 100 µM (inactive) | > 100 µM (inactive) | > 100 µM (inactive) | > 100 µM (inactive) | > 100 µM (inactive) | > 100 µM (inactive) | > 100 µM (inactive) | > 100 µM (inactive)
12 | [N-]=[N+]=NI1OC(C(F)(F)F)(C(F)(F)F)c2ccccc21 | – | 24.5 µM (inactive) | 15.5 µM (inactive) | 16.3 µM (inactive) | 13.4 µM (inactive) | 16.5 µM (inactive) | 16 µM (inactive) | 17.9 µM (inactive) | 31.2 µM (inactive) | 18 µM (inactive) | 15.7 µM (inactive) | – | 14 µM (inactive) | 16 µM (inactive) | 1.24 µM (inactive) | 17.3 µM (inactive) | > 100 µM (inactive) | 15.6 µM (inactive) | 15.4 µM (inactive) | 15.6 µM (inactive)
13 | CSC(=S)NNC(=O)c1ccncc1 | – | 23.8 µM (inactive) | 16.2 µM (inactive) | 14.6 µM (inactive) | 25.3 µM (inactive) | 26.7 µM (inactive) | 22.6 µM (inactive) | 23.6 µM (inactive) | 19 µM (inactive) | 16.5 µM (inactive) | – | 46.6 µM (inactive) | 16.1 µM (inactive) | 17.4 µM (inactive) | 23.7 µM (inactive) | 18.2 µM (inactive) | 22.7 µM (inactive) | 40.7 µM (inactive) | 20 µM (inactive) | 14.6 µM (inactive)
14 | COC(CN(C=O)[C@@H](c1ccc(Cl)cc1)c1cc2ccccc2o1)OC | 17.1 µM (inactive) | 14 µM (inactive) | 23.6 µM (inactive) | 14.8 µM (inactive) | 16.7 µM (inactive) | 15.5 µM (inactive) | 16.9 µM (inactive) | – | 17.3 µM (inactive) | 14.8 µM (inactive) | 17.3 µM (inactive) | 15.5 µM (inactive) | 14.6 µM (inactive) | 16.7 µM (inactive) | 15.5 µM (inactive) | 17.1 µM (inactive) | 19.4 µM (inactive) | 11.1 µM (inactive) | 20.5 µM (inactive) | –
15 | CCN(CCN(CC)C(=O)Nc1ccccc1)C(=O)Nc1ccccc1 | – | > 100 µM (inactive) | > 100 µM (inactive) | > 100 µM (inactive) | > 100 µM (inactive) | > 100 µM (inactive) | > 100 µM (inactive) | > 100 µM (inactive) | > 100 µM (inactive) | > 100 µM (inactive) | > 100 µM (inactive) | > 100 µM (inactive) | > 100 µM (inactive) | > 100 µM (inactive) | > 100 µM (inactive) | > 100 µM (inactive) | > 100 µM (inactive) | – | > 100 µM (inactive) | > 100 µM (inactive)
